Assay results reported in article PMC7854729 (Nature Communications, 2021).
“And” between values parts separate entries of the source, which are not always exact repeats. Identical values can stand only once. Like-named read-outs stand apart in the source and are kept apart here.

Legend:
[1] = test system: SARS-CoV; conditions: cited from earlier work
[2] = test system: SARS-CoV-2; test: microbe, parasite or virus in culture; format: cell-based, SARS-CoV-2 (nCoV/Washington/1/2020) in Vero E6 cells; conditions: for EC50: Severe acute respiratory syndrome coronavirus 2, Vero C1008, 24 h; for Percent Spike Positive Cells: relative to DMSO treated cells, single replicates
[3] = test system: PLpro from MERS; conditions: cited from earlier work
[4] = test system: Vero E6 cells; conditions: cited from earlier work
[5] = molecular target: SARS-CoV-2 PLpro (Severe acute respiratory syndrome coronavirus 2, UniProt P0DTD1); test: biochemical

Cc1ccc(N)cc1C(=O)N[C@H](C)c1cccc2ccccc12 [Compound 1, 5-amino-2-methyl-N-[(1R)-1-naphthalen-1-ylethyl]benzamide]
potency in SARS-CoV-infected Vero E6 cells [1]: good potency
inhibition of virus replication [2]: inhibiting virus replication
EC50 [2]: 1.4 ± 0.65 µM
inhibition of MERS PLpro [3]: not inhibited
cytotoxicity [4]: low cytotoxicity

Nc1cc(C(=O)Nc2cccc3ccccc23)cc(C(F)(F)F)c1 [Compound 4]
EC50 ([2]; read-out: EC50): 1.7 ± 4.4 µM
inhibition of virus replication ([2]; Vero E6, SARS-CoV-2): inhibiting virus replication
Percent Spike Positive Cells ([2]; [Drug] 0.1 uM): 75% and 100% and 88%
Percent Spike Positive Cells ([2]; [Drug] 1 uM): 88% and 81% and 63%
Percent Spike Positive Cells ([2]; [Drug] 10 uM): 0%
IC50 ([5]; IC50): 43.2 ± 9.4 µM
PLpro assay signal (source data Figure 2, single replicates) ([5]; Log(M) -0.30103, listed as 4 (Snyder550)): 498 and 310 and 468
PLpro assay signal (source data Figure 2, single replicates) ([5]; Log(M) -0.60206, listed as 4 (Snyder550)): 426 and 463 and 490
PLpro assay signal (source data Figure 2, single replicates) ([5]; Log(M) -1, listed as 4 (Snyder550)): 617 and 632 and 562
PLpro assay signal (source data Figure 2, single replicates) ([5]; Log(M) -1.30103, listed as 4 (Snyder550)): 679 and 720 and 747
PLpro assay signal (source data Figure 2, single replicates) ([5]; Log(M) -1.69897, listed as 4 (Snyder550)): 956 and 920 and 944
PLpro assay signal (source data Figure 2, single replicates) ([5]; Log(M) -2, listed as 4 (Snyder550)): 1073 and 1048 and 930
PLpro assay signal (source data Figure 2, single replicates) ([5]; Log(M) -2.39794, listed as 4 (Snyder550)): 1192 and 1138 and 1087
PLpro assay signal (source data Figure 2, single replicates) ([5]; Log(M) -2.69897, listed as 4 (Snyder550)): 1318 and 1220 and 924
PLpro assay signal (source data Figure 2, single replicates) ([5]; Log(M) -3.09691, listed as 4 (Snyder550)): 1177 and 1051 and 1092
PLpro assay signal (source data Figure 2, single replicates) ([5]; Log(M) -3.39794, listed as 4 (Snyder550)): 1045 and 1012 and 1221

CCCCNC(=O)Nc1ccc(C)c(C(=O)N[C@H](C)c2cccc3ccccc23)c1 [Compound 5, 5-(butylcarbamoylamino)-2-methyl-N-[(1R)-1-naphthalen-1-ylethyl]benzamide]
EC50 ([2]; read-out: EC50): 2.5 µM
inhibition of virus replication ([2]; Vero E6, SARS-CoV-2): inhibiting virus replication
Percent Spike Positive Cells ([2]; [Drug] 0.1 uM): 115%
Percent Spike Positive Cells ([2]; [Drug] 1 uM): 115%
Percent Spike Positive Cells ([2]; [Drug] 10 uM): 69% and 115% and 92%
IC50 ([5]; IC50): 16.8 µM and 32.8 µM
PLpro assay signal (source data Figure 2, single replicates) ([5]; Log(M) -3.30103, listed as 5 (Snyder539)): 225 and 216 and 235
PLpro assay signal (source data Figure 2, single replicates) ([5]; Log(M) -3.60206, listed as 5 (Snyder539)): 256 and 292 and 307
PLpro assay signal (source data Figure 2, single replicates) ([5]; Log(M) -4, listed as 5 (Snyder539)): 289 and 427 and 447
PLpro assay signal (source data Figure 2, single replicates) ([5]; Log(M) -4.30103, listed as 5 (Snyder539)): 464 and 626 and 554
PLpro assay signal (source data Figure 2, single replicates) ([5]; Log(M) -4.69897, listed as 5 (Snyder539)): 802 and 736 and 827
PLpro assay signal (source data Figure 2, single replicates) ([5]; Log(M) -5, listed as 5 (Snyder539)): 945 and 917 and 894
PLpro assay signal (source data Figure 2, single replicates) ([5]; Log(M) -5.39794, listed as 5 (Snyder539)): 1120 and 1187 and 1137
PLpro assay signal (source data Figure 2, single replicates) ([5]; Log(M) -5.69897, listed as 5 (Snyder539)): 1190 and 1202 and 1324
PLpro assay signal (source data Figure 2, single replicates) ([5]; Log(M) -6.09691, listed as 5 (Snyder539)): 1485 and 1470 and 1518
PLpro assay signal (source data Figure 2, single replicates) ([5]; Log(M) -6.39794, listed as 5 (Snyder539)): 1389 and 1269 and 1337

Cc1ccc(NC(=O)Oc2ccc([N+](=O)[O-])cc2)cc1C(=O)N[C@H](C)c1cccc2ccccc12 [Compound 6, 5-(((4-nitrophenoxy)carbonyl)amino)-2-methyl-N-[(1R)-1-naphthalen-1-ylethyl]benzamide]
inhibition of virus replication ([2]; Vero E6, SARS-CoV-2): inhibiting virus replication
Percent Spike Positive Cells ([2]; [Drug] 0.1 uM): 92% and 115% (2×)
Percent Spike Positive Cells ([2]; [Drug] 1 uM): 115%
Percent Spike Positive Cells ([2]; [Drug] 10 uM): 46% and 69%
PLpro assay signal (source data Figure 2, single replicates) ([5]; Log(M) -3.30103, listed as 6 (Snyder538)): 62 and 61 and 69
PLpro assay signal (source data Figure 2, single replicates) ([5]; Log(M) -3.60206, listed as 6 (Snyder538)): 86 and 78 and 83
PLpro assay signal (source data Figure 2, single replicates) ([5]; Log(M) -4, listed as 6 (Snyder538)): 127 and 161 and 203
PLpro assay signal (source data Figure 2, single replicates) ([5]; Log(M) -4.30103, listed as 6 (Snyder538)): 120 and 170 and 193
PLpro assay signal (source data Figure 2, single replicates) ([5]; Log(M) -4.69897, listed as 6 (Snyder538)): 420 and 406 and 486
PLpro assay signal (source data Figure 2, single replicates) ([5]; Log(M) -5, listed as 6 (Snyder538)): 662 and 534 and 618
PLpro assay signal (source data Figure 2, single replicates) ([5]; Log(M) -5.39794, listed as 6 (Snyder538)): 926 and 988 and 896
PLpro assay signal (source data Figure 2, single replicates) ([5]; Log(M) -5.69897, listed as 6 (Snyder538)): 1105 and 1269 and 1030
PLpro assay signal (source data Figure 2, single replicates) ([5]; Log(M) -6.09691, listed as 6 (Snyder538)): 1318 and 1309 and 1349
PLpro assay signal (source data Figure 2, single replicates) ([5]; Log(M) -6.39794, listed as 6 (Snyder538)): 1380 and 1317 and 1379
IC50 ([5]; pH 7.3, read-out: IC50): 7 ± 0.6 µM

CCCCC(=O)Nc1ccc(C)c(C(=O)N[C@H](C)c2cccc3ccccc23)c1 [Compound 7, 5-pentanoylamino-2-methyl-N-[(1R)-1-naphthalen-1-ylethyl]benzamide]
EC50 ([2]; read-out: EC50): 5.2 ± 4.2 µM
inhibition of virus replication ([2]; Vero E6, SARS-CoV-2): inhibiting virus replication
Percent Spike Positive Cells ([2]; [Drug] 0.1 uM): 115% (2×) and 92%
Percent Spike Positive Cells ([2]; [Drug] 1 uM): 69% (2×) and 115%
Percent Spike Positive Cells ([2]; [Drug] 10 uM): 46% and 23% and 35%
PLpro assay signal (source data Figure 2, single replicates) ([5]; Log(M) -3.30103, listed as 7 (Snyder514)): 189 and 225 and 281
PLpro assay signal (source data Figure 2, single replicates) ([5]; Log(M) -3.60206, listed as 7 (Snyder514)): 257 and 276 and 274
PLpro assay signal (source data Figure 2, single replicates) ([5]; Log(M) -4, listed as 7 (Snyder514)): 332 and 331 and 303
PLpro assay signal (source data Figure 2, single replicates) ([5]; Log(M) -4.30103, listed as 7 (Snyder514)): 346 and 354 and 361
PLpro assay signal (source data Figure 2, single replicates) ([5]; Log(M) -4.69897, listed as 7 (Snyder514)): 672 and 717 and 815
PLpro assay signal (source data Figure 2, single replicates) ([5]; Log(M) -5, listed as 7 (Snyder514)): 856 and 922 and 1036
PLpro assay signal (source data Figure 2, single replicates) ([5]; Log(M) -5.39794, listed as 7 (Snyder514)): 1160 and 1233 and 1196
PLpro assay signal (source data Figure 2, single replicates) ([5]; Log(M) -5.69897, listed as 7 (Snyder514)): 1260 and 1362 and 1272
PLpro assay signal (source data Figure 2, single replicates) ([5]; Log(M) -6.09691, listed as 7 (Snyder514)): 1429 and 1375 and 1302
PLpro assay signal (source data Figure 2, single replicates) ([5]; Log(M) -6.39794, listed as 7 (Snyder514)): 1493 and 1486 and 1598
IC50 ([5]; pH 7.3, read-out: IC50): 12.7 ± 1.3 µM
